≈ marks a conversion by molar mass, not a printed value. Where two headings read alike, the source gives them in different places.
Tests used:
KRAS (G12C)::SOS1 = KRAS (G12C)::SOS1 (Homo sapiens (Human), UniProt P01116, C118S/C51S/C80L/G12C); experiment: KRAS::SOS1 AlphaScreen binding assay, KRAS G12C
Description: This assay can be used to examine the potency with which compounds according to the invention binding to (mutated) KRAS inhibit the protein-protein interaction between SOS1 and (mutated) KRAS e.g., KRAS WT, KRAS G12C, KRAS G12D, KRAS G12V, KRAS G13D. […] Low IC50 values in this assay setting are indicative of strong inhibition of protein-protein interaction between SOS1 and KRAS:
These assays measure the inhibitory effect of compounds on KRAS mutant protein-protein interactions using the Alpha Screen technology by Perkin Elmer.
The following (mutant) enzyme forms of KRAS and interacting proteins are used in these assays at the given concentrations: • KRAS (G12D) 1-169, N-terminal 6His-tag, C-terminal avi-tag (Xtal BioStructures, Inc.); final assay concentration 10 nM and SOS1 564-1049, N-terminal 229 GST-tag, TEV cleavage site (Viva Biotech Ltd); final assay concentration 5 nM; • KRAS (G12C) 1-169, N-terminal 6His-tag for purification, cleaved off, C-terminal avi-tag, biotinylated, mutations: C51S, C80L, C118S (in house); final assay concentration 7.5 nM and SOS1 564-1049, N-terminal 229 GST-tag, TEV cleavage site (Viva Biotech Ltd); final assay concentration 5 nM; • KRAS (G12V) 1-169, N-terminal 6His-tag for purification, cleaved off, C-terminal avi-tag, biotinylated, TEV cleavage site, mutation: C118S, GDP loaded (in house); final assay concentration 10 nM and SOS1 564-1049, N-terminal 229 GST-tag, TEV cleavage site (Viva Biotech Ltd); final assay concentration 10 nM; • KRAS (G13D) 1-169, N-terminal 6His-tag for purification, cleaved off, C-terminal avi-tag, biotinylated, TEV cleavage site, mutation: C118S, GDP loaded (in house); final assay concentration 10 nM and SOS1 564-1049, N-terminal 229 GST-tag, TEV cleavage site (Viva Biotech Ltd); final assay concentration 10 nM; • KRAS (WT) 1-169, N-terminal 6His-tag for purification, cleaved off, C-terminal avi-tag, biotinylated, TEV cleavage site, mutation: C118S, GDP loaded (in house); final assay concentration 10 nM and SOS1 564-1049, N-terminal 229 GST-tag, TEV cleavage site (Viva Biotech Ltd); final assay concentration 10 nM.
Test compounds dissolved in DMSO are dispensed onto assay plates (Proxiplate 384 PLUS, white, PerkinElmer; 6008289) using an Access Labcyte Workstation with the Labcyte Echo 55×. For the chosen highest assay concentration of 100 μM, 150 nL of compound solution are transferred from a 10 mM DMSO compound stock solution. A series of eleven fivefold dilutions per compound are transferred to the assay plate, compound dilutions are tested in duplicates. DMSO are added as backfill to a total volume of 150 nL.
The assays run on a fully automated robotic system in a darkened room below 100 Lux. To 150 nl of compound dilution 10 μl of a mix including KRAS mutant protein, SOS1 (final assay concentrations see above) and GDP nucleotide (Sigma G7127; final assay concentration 10 μM) in assay buffer (1×PBS, 0.1% BSA, 0.05% Tween 20) are added into columns 1-24.
After 30 minutes incubation time 5 μl of Alpha Screen bead mix in assay buffer are added into columns 1-23. Bead mix consists of AlphaLISA Glutathione Acceptor Beads (PerkinElmer, Cat No AL109) and AlphaScreen Streptavidin Donor Beads (PerkinElmer Cat No 6760002) in assay buffer at a final assay concentration of 10 μg/ml each.
Plates are kept at room temperature in a darkened incubator. After an additional 60 minutes incubation time the signal is measured in a PerkinElmer Envision HTS Multilabel Reader using the AlphaScreen specs from PerkinElmer.
Each plate contains up to 16 wells of a negative control depending on the dilution procedure (platewise or serial) (DMSO instead of test compound; with KRAS mutant::SOS1 GDP mix and bead mix; column 23) and 16 wells of a positive control (DMSO instead of test compound; with KRAS mutant::SOS1 GDP mix w/o bead mix; column 24).
As internal control known inhibitors of KRAS mutant::SOS1 interaction can be measured on each compound plate. […]

[1] = Solubility measurement (DMSO solution method), McIlvaine buffer pH 4.5 or 6.8; type: physicochemical; conditions: aqueous buffer, kinetic from dmso stock, DMSO stock diluted to 250 μM, 24 h shaking at ambient temperature
Procedure: The DMSO solution is diluted with an aqueous medium (Mcllvaine buffer with pH=4.5 or 6.8) to a final concentration of 250 μM. After 24 h of shaking at ambient temperature a potentially formed precipitate is removed by filtration. The concentration of the test compound in the filtrate is determined by LC-UV methods by calibrating the signal to the signal of a reference solution with complete dissolution of the test compound in acetonitrile/water (1:1) with known concentration.

[2] = Plasma protein binding assay (PPB), equilibrium dialysis, 10% FCS in PBS; type: in vitro ADME; conditions: bovine, read-out: PPB 10% FCS (% fu)
Procedure: Binding of test compounds to plasma was determined using equilibrium dialysis (ED) and quantitative mass spectrometry interfaced with liquid chromatography (LC-MS). In brief, ED was performed with dialysis devices consisting of two chambers separated by a semipermeable membrane with a molecular weight cut-off of 5-10 kg/mol. One chamber was filled with 10% FCS in PBS containing 1-10 μmol/L test compound and the other chamber was filled with phosphate-buffer saline (PBS) with or without dextran. The dialysis chamber was incubated for 3-5 hours at 37° C. After incubation, protein was precipitated from aliquots of each chamber and the concentration of test compound in the supernatant of the plasma-containing compartment (Cserum) and of the buffer-containing compartment (Cbuffer) was determined by LC-MS. The fraction of unbound test compound (not bound to plasma) (fu) was calculated according to the following equation: […]

[3] = McIlvaine buffer pH 4.5, read-out: solubility pH 4.5
[4] = McIlvaine buffer pH 6.8, read-out: solubility pH 6.8

Sequence of KRAS (G12C)::SOS1 (P01116 other isoform, or with tags, fused parts or gaps G12C/C51S/C80L/C118S): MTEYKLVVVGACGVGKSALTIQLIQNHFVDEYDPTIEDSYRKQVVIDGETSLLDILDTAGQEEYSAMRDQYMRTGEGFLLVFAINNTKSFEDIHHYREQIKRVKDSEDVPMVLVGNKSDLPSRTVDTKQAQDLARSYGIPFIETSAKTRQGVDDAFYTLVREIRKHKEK

Row | Compound | IC50 (KRAS (G12C)::SOS1) | solubility at 24 h [1, 3] | solubility at 24 h [1, 4] | fraction unbound [2]
1 | C[C@H](Oc1cc(-n2cnc3cccnc32)nc(-c2noc3c2CCC[C@@]32CCCc3sc(N)c(C#N)c32)n1)[C@@H]1CCCN1C [II-65] | 4 nM | 7 µg/mL (≈ 11.5 µM) | < 1 µg/mL | 0.03
2 | C[C@H](Oc1cc(-c2cccc(CO)c2)nc(-c2noc3c2CCC[C@@]32CCCc3sc(N)c(C#N)c32)n1)[C@@H]1CCCN1C [II-97] | 3 nM | 40 µg/mL (≈ 67 µM) | < 1 µg/mL | 0.13
3 | COC(=O)c1ccc(-c2cc(O[C@@H](C)[C@@H]3CCCN3C)nc(-c3noc4c3CCC[C@@]43CCCc4sc(N)c(C#N)c43)n2)o1 [II-114] | 2 nM | 41 µg/mL (≈ 66.7 µM) | < 1 µg/mL | 0.07
4 | C[C@H](Oc1cc(N2Cc3cnn(C)c3C2)nc(-c2noc3c2CCC[C@@]32CCCc3sc(N)c(C#N)c32)n1)[C@@H]1CCCN1C [II-63] | 3 nM | < 1 µg/mL | < 1 µg/mL | 0.06
5 | C[C@H](Oc1cc(-n2ccnc2)nc(-c2noc3c2CCC[C@@]32CCCc3sc(N)c(C#N)c32)n1)[C@@H]1C[C@@H](F)CN1C [II-120] | 2 nM | 106 µg/mL (≈ 184 µM) | < 1 µg/mL | 0.24
6 | C[C@H](O)Cn1ccc(-c2cc(O[C@@H](C)[C@@H]3CCCN3C)nc(-c3noc4c3CCC[C@@]43CCCc4sc(N)c(C#N)c43)n2)n1 [II-112] | 1 nM | > 139 µg/mL | 121 µg/mL (≈ 197 µM) | 0.41
7 | C[C@H](Oc1cc(N2CC[C@H](N(C)C)C2)nc(-c2onc3c2CCC[C@@]32CCCc3sc(N)c(C#N)c32)n1)[C@@H]1CCCN1C [I-11] | 7 nM | > 141 µg/mL | 112 µg/mL (≈ 186 µM) | 0.33
8 | C[C@H](Oc1cc(N2CCNCC23CCOC3)nc(-c2onc3c2CCC[C@@]32CCCc3sc(N)c(C#N)c32)n1)[C@@H]1CCCN1C (stereo partly drawn) [I-10] | 3 nM | > 141 µg/mL | > 136 µg/mL | 0.7
9 | C[C@H](Oc1cc(N2CCN(C)CC2)nc(-c2noc3c2CCC[C@@]32CCCc3sc(N)c(C#N)c32)n1)[C@@H]1CCCN1C [II-55] | 4 nM | > 172 µg/mL | > 161 µg/mL | 0.26
10 | C[C@H](Oc1cc(N2CCNC3(CC3)C2)nc(-c2noc3c2CCC[C@@]32CCCc3sc(N)c(C#N)c32)n1)[C@@H]1CCCN1C [II-54] | 2 nM | > 134 µg/mL | > 122 µg/mL | 0.3
11 | CO[C@@H]1C[C@@H]([C@H](C)Oc2cc(-c3cnn(C)n3)nc(-c3noc4c3CCC[C@@]43CCCc4sc(N)c(C#N)c43)n2)N(C)C1 [II-62] | 3 nM | > 129 µg/mL | < 1 µg/mL | 0.18
12 | C[C@H](Oc1cc(-c2cnsc2)nc(-c2noc3c2CCC[C@@]32CCCc3sc(N)c(C#N)c32)n1)[C@@H]1CCCN1C [II-111] | 2 nM | 22 µg/mL (≈ 38.3 µM) | < 1 µg/mL | 0.11
13 | C[C@H](Oc1cc(-c2ccccn2)nc(-c2noc3c2CCC[C@@]32CCCc3sc(N)c(C#N)c32)n1)[C@@H]1CCCN1C [II-85] | 2 nM | 38 µg/mL (≈ 66.9 µM) | 3 µg/mL (≈ 5.28 µM) | 0.08

Second part, the compound after the results:

Row | IC50 (KRAS (G12C)::SOS1) | solubility at 24 h [1, 3] | solubility at 24 h [1, 4] | fraction unbound [2] | Compound
14 | 2 nM | 109 µg/mL (≈ 181 µM) | 69 µg/mL (≈ 115 µM) | 0.4 | COCc1cn(-c2cc(O[C@@H](C)[C@@H]3CCCN3C)nc(-c3noc4c3CCC[C@@]43CCCc4sc(N)c(C#N)c43)n2)nn1 [II-121]
15 | 2 nM | < 1 µg/mL | < 1 µg/mL | 0.11 | C[C@H](Oc1cc(-n2cc(-c3cccnc3)nn2)nc(-c2noc3c2CCC[C@@]32CCCc3sc(N)c(C#N)c32)n1)[C@@H]1CCCN1C [II-123]
16 | 3 nM | 120 µg/mL (≈ 196 µM) | 57 µg/mL (≈ 92.9 µM) | 0.28 | C[C@H](Oc1cc(-c2cn(C3COC3)nn2)nc(-c2noc3c2CCC[C@@]32CCCc3sc(N)c(C#N)c32)n1)[C@@H]1CCCN1C [II-100]
17 | 2 nM | > 112 µg/mL | 82 µg/mL (≈ 147 µM) | 0.59 | C[C@H](Oc1cc(-c2cc[nH]n2)nc(-c2noc3c2CCC[C@@]32CCCc3sc(N)c(C#N)c32)n1)[C@@H]1CCCN1C [II-71]
18 | 3 nM | 57 µg/mL (≈ 99.9 µM) | 29 µg/mL (≈ 50.8 µM) | 0.48 | C[C@H](Oc1cc(-c2cnn(C)c2)nc(-c2noc3c2CCC[C@@]32CCCc3sc(N)c(C#N)c32)n1)[C@@H]1CCCN1C [II-74]
19 | 3 nM | > 124 µg/mL | 88 µg/mL (≈ 153 µM) | 0.22 | C[C@H](Oc1cc(N2CCCC2=O)nc(-c2noc3c2CCC[C@@]32CCCc3sc(N)c(C#N)c32)n1)[C@@H]1CCCN1C [II-73]
20 | 2 nM | 107 µg/mL (≈ 187 µM) | 2 µg/mL (≈ 3.5 µM) | 0.25 | C[C@H](Oc1cc(-c2ccn(C)n2)nc(-c2noc3c2CCC[C@@]32CCCc3sc(N)c(C#N)c32)n1)[C@@H]1CCCN1C [II-96]
21 | 2 nM | 32 µg/mL (≈ 53.5 µM) | < 1 µg/mL | 0.08 | C[C@H](Oc1cc(-n2cc(C3CC3)nn2)nc(-c2noc3c2CCC[C@@]32CCCc3sc(N)c(C#N)c32)n1)[C@@H]1CCCN1C [II-118]
22 | 2 nM | 3 µg/mL (≈ 4.72 µM) | < 1 µg/mL | 0.01 | C[C@H](Oc1cc(-n2ccc(Br)n2)nc(-c2noc3c2CCC[C@@]32CCCc3sc(N)c(C#N)c32)n1)[C@@H]1CCCN1C [II-110]
23 | 4 nM | 107 µg/mL (≈ 187 µM) | 13 µg/mL (≈ 22.7 µM) | 0.2 | Cc1cn(-c2cc(O[C@@H](C)[C@@H]3CCCN3C)nc(-c3noc4c3CCC[C@@]43CCCc4sc(N)c(C#N)c43)n2)nn1 [II-106]
24 | 2 nM | 109 µg/mL (≈ 195 µM) | 94 µg/mL (≈ 169 µM) | 0.44 | C[C@H](Oc1cc(-n2cncn2)nc(-c2noc3c2CCC[C@@]32CCCc3sc(N)c(C#N)c32)n1)[C@@H]1CCCN1C [II-70]

From patent US20240174690A1, “ANNULATED 2-AMINO-3-CYANO THIOPHENES AND DERIVATIVES FOR THE TREATMENT OF CANCER” (BOEHRINGER INGELHEIM INTERNATIONAL GMBH, priority 2021, published 2024)
